Tested on: hippocampal cells
Experiment: Real-time RT-PCR of genes induced by neurotrophin treatment of hippocampal cultures
Assay type: cell-based, rat
Details: 50 ng/mL, RT-PCR vs control, average ± standard error
Method: The molecular genetics underlying BDNF-evoked plasticity were examined by expression profiling using cDNA microarrays on a population of hippocampal cells in vitro. Synaptic effects of BDNF are observed within 20 minutes of exposure (Levine et al. (1996) supra; Lessmann and Heumann (1998) supra; Schinder et al. (2000) supra). A 3-hour BDNF treatment has been used to identify several genes with roles in synaptic plasticity (Thakker-Varia et al. (2001) supra). Consequently, to reveal immediate, as well as downstream transcriptional changes, both acute (20 minutes) and longer treatment (3 hours) with BDNF were used herein. […] Two independent Atlas arrays were performed using RNA from hippocampal cells treated for either 20 minutes or 3 hours of BDNF (50 ng/mL) and control sister cultures.
Of those genes selected, the regulation of 7% at 20 minutes and 40% at 3 hours were validated, although the magnitude of regulation was not always identical to that observed on the microarray. To focus on genes specifically involved in plasticity, a related neurotrophin, nerve growth factor (NGF), not inducing synaptic plasticity (Levine et al. (1996) supra), served as a control.
Time-mated pregnant rats were sacrificed by CO2 asphyxiation in accordance with institutional guidelines for care and use of animals. Fetuses were removed by caesarean section and transferred to a sterile petri dish with phosphate-buffered saline. Fetal hippocampi were dissected from surrounding brain tissue and meninges were completely removed. Low-density cultures of dissociated embryonic day 18 rat hippocampi (Sprague Dawley from Hilltop Laboratories, Scottsdale, Pa.) were prepared using standard methods (Thakker-Varia et al. (2001) supra). Briefly, pooled tissue from each litter was mechanically dissociated in nutrient medium containing 7.5% fetal bovine serum and plated on poly-D-lysine-coated culture dishes at 350,000 cells/dish. Cultures were maintained in serum-free medium (Thakker-Varia et al., 2001) for 10-14 days and contained pure neurons.
Total cellular RNA was prepared from neuronal cultures treated with either BDNF (50 ng/ml) or vehicle (water) for either 20 min or 3 hr by the guanidine isothiocyanate method and CsCl gradients (Thakker-Varia et al., 2001). DNAse-treated total RNA was prepared from neurotrophin or control hippocampal cultures and reverse transcribed using gene specific primers. Radioactively labeled probes were then hybridized to Atlas Arrays Rat 1.2 (Clontech, Palo Alto, Calif.) according to manufacturer's protocol. Arrays were performed in duplicate with an independent source of RNA. The hybridization pattern was analyzed on a phosphorimager and normalized to the global hybridization signal. Analysis was performed by Clontech using 1.7-fold change as criteria for significance. All transcriptional changes were confirmed by real time RT-PCR on independent samples (see below).
cDNA (100 μl) was prepared from 2 μg control or BDNF-treated RNA using random primers and Superscript II reverse transcriptase. 25 μl PCR reactions were then carried out using gene specific primers designed by Primer Express software and TaqMan MGB probes (Applied Biosystems 7000 Sequence Detection System, Foster City, Calif.). Duplicate wells were included for each condition and primer pair. Primers specific to the housekeeping gene, glyceraldehyde-3-phosphate dehydrogenase (GAPDH) were used as an internal control. Data analysis was performed according to the protocol provided by Applied Biosystems.

For “BDNF: neurotrophin, 50 ng/ml, Preprotech; induces synaptic plasticity in hippocampal neurons”, the “Fold Change Arc” value (3 Hour BDNF Treatment) was 34.8 ± 4.3 fold, the “Fold Change CyclinD1” value (3 Hour BDNF Treatment) was 3.3 ± 0.5 fold and the “Fold Change EGR1” value (3 Hour BDNF Treatment) was 6.6 ± 0.9 fold. For the same substance, the “Fold Change Fra2” value (3 Hour BDNF Treatment) was 2.3 ± 0.4 fold, the “Fold Change Kv + 1.1” value (3 Hour BDNF Treatment) was 1.4 ± 0.1 fold and the “Fold Change Na + ch” value (3 Hour BDNF Treatment) was 1.8 ± 0.2 fold. For the same substance, the “Fold Change PTP1B” value (3 Hour BDNF Treatment) was 1.4 ± 0.1 fold, the “Fold Change SSTR4” value (3 Hour BDNF Treatment) was 1.7 ± 0.1 fold and the “Fold Change SgII” value (3 Hour BDNF Treatment) was 5.1 ± 1.2 fold. The “Fold Change VGF” value (3 Hour BDNF Treatment) was 6.5 ± 1.5 fold, the “Fold Change c-fos” value (3 Hour BDNF Treatment) was 2.3 ± 0.4 fold and the “Fold Change NPY” value (3 Hour BDNF Treatment, n = 5) was 1.9 ± 0.3 fold. For the same substance, the “Fold Change UNC5H2” value (3 Hour BDNF Treatment, n = 5) was 2.2 ± 0.6 fold, the “Fold Change Arc” value (20 Minute BDNF Treatment) was 13.7 ± 5.0 fold and the “Fold Change EGR1” value (20 Minute BDNF Treatment) was 4.3 ± 0.8 fold. The “Fold Change c-fos” value (20 Minute BDNF Treatment) was 2.2 ± 0.4 fold.
